Active and inactive are the calls of the source.
Columns and labels:
[1] = target: Nonstructural protein 1 (Influenza A virus, UniProt Q194T2); type: functional, Influenza A virus (A/California/07/2009(H1N1))
[2] = target: Alkaline phosphatase, placental type (Homo sapiens, UniProt P05187); assay: PLAP enzyme inhibitors, confirmation, biochemical, luminescence (AID 1512); type: functional
[3] = target: T1, Microphthalmia-associated transcription factor (Homo sapiens, UniProt O75030); assay: TRPM1 promoter luciferase signal decrease, dose response, MITF inhibitor project, cell-based, SK-MEL-5, cherry-picked, set 3 (AID 493073); type: functional
T1 sequence (O75030 whole entry): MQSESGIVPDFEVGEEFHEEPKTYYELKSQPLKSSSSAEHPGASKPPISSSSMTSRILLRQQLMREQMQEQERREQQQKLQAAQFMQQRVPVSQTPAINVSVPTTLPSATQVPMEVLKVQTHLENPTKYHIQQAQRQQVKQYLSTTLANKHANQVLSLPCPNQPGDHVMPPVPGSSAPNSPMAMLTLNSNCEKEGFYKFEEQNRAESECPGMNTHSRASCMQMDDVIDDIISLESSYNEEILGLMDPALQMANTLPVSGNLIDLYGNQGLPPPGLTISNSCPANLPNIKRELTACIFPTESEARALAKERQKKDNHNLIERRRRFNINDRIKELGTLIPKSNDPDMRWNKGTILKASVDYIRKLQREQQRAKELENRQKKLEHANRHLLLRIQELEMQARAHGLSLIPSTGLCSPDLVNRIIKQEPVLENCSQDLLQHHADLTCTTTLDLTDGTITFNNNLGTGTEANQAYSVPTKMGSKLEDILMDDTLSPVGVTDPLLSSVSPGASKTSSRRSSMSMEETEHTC

[4] = target: Glyceraldehyde-3-phosphate dehydrogenase (Homo sapiens, UniProt P04406)
Chain of Glyceraldehyde-3-phosphate dehydrogenase (P04406 whole entry): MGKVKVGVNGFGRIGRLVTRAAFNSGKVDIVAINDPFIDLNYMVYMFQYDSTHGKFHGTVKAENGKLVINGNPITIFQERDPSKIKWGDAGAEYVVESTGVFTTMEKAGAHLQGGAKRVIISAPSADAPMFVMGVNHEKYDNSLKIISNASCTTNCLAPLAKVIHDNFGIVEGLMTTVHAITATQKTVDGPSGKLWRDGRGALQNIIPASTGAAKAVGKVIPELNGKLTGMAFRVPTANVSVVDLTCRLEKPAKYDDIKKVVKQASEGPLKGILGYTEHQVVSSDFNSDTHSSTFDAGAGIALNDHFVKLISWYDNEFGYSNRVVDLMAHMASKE

[5] = target: T2, Alkaline phosphatase, tissue-nonspecific isozyme (Homo sapiens, UniProt P05186); assay: human TNAP enzyme inhibitors, SAR follow-up, biochemical, luminescent, dose response (AID 1056)
T2 sequence (P05186 whole entry): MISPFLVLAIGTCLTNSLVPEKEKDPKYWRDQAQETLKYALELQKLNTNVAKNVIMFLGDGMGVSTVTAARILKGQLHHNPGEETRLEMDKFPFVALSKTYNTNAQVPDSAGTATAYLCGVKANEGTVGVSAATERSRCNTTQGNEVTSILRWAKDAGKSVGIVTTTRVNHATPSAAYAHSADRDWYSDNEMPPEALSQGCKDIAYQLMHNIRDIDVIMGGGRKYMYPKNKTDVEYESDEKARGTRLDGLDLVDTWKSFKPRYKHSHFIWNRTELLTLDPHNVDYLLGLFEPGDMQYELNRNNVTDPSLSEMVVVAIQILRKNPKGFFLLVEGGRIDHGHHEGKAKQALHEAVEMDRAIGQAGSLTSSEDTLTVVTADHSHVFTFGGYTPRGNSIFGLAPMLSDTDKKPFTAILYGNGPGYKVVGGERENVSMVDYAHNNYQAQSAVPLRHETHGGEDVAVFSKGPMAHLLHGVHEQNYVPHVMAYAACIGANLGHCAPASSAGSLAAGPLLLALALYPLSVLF

[6] = target: T3, Voltage-gated N-type calcium channel alpha-1B subunit/Amyloid beta A4 precursor protein-binding family A member 1 (Homo sapiens, UniProt Q00975+Q02410); type: protein assay
[7] = target: T3, Voltage-gated N-type calcium channel alpha-1B subunit/Amyloid beta A4 precursor protein-binding family A member 1; type: protein assay; remark: listed apart in the source
[8] = target: Genome polyprotein (dengue virus type 2, UniProt P29990); assay: Dengue-2 NS5 methyltransferase inhibitors, primary screen, biochemical, confirmation dose response (AID 588689); type: functional
Chain of Genome polyprotein (P29990 2492-3391 limits assumed): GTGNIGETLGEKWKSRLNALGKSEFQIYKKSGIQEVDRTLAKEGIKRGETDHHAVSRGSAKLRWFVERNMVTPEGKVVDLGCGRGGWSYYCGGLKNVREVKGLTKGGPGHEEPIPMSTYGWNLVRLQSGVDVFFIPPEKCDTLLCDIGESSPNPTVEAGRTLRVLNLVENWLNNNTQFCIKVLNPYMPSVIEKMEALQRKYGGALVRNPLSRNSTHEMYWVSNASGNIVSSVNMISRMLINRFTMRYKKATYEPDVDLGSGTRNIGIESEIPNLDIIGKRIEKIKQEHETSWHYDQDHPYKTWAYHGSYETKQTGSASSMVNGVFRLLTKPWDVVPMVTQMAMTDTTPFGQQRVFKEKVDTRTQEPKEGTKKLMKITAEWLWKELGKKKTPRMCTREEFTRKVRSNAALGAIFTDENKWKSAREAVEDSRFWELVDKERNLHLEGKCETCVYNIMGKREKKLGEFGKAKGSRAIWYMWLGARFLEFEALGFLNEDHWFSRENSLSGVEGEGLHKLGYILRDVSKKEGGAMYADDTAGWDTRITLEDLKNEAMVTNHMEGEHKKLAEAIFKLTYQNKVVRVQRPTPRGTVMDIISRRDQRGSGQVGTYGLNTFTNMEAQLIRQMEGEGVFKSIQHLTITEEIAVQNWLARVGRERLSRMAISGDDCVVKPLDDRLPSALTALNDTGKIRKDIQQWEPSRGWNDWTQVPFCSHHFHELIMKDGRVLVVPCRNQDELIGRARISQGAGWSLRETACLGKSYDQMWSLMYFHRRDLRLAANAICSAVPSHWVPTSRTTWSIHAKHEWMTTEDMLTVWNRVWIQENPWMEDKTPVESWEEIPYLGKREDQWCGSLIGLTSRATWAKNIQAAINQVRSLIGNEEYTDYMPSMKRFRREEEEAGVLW

[9] = target: T4, Rac GTPase-activating protein 1 (Homo sapiens, UniProt Q9H0H5); assay: MgcRacGAP GTPase-activating activity inhibitors, confirmation, biochemical, ADP Hunter fluorescence, primary and confirmatory (AID 624330); type: functional
T4 sequence (Q9H0H5 whole entry): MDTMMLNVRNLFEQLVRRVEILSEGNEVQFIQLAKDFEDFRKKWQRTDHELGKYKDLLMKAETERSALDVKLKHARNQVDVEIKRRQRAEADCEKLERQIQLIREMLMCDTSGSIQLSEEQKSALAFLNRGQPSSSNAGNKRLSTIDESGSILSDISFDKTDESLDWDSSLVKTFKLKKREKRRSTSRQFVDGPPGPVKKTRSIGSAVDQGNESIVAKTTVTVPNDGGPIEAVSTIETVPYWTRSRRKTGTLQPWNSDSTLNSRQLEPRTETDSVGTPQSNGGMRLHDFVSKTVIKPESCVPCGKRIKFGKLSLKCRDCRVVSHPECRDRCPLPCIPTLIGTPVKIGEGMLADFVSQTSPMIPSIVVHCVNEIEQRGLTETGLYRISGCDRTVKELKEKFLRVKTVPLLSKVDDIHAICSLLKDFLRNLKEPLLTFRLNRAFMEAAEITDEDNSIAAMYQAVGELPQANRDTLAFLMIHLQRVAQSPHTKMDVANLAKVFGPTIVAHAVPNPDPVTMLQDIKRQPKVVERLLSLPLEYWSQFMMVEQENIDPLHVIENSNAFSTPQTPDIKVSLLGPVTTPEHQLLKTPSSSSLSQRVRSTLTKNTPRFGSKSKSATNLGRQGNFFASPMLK

[10] = target: Cytochrome P450 3A4 (Homo sapiens, UniProt P08684);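 also: CYP3A4 tested as one member of a cytochrome P450 panel screen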
Chain of Cytochrome P450 3A4 (P08684 whole entry): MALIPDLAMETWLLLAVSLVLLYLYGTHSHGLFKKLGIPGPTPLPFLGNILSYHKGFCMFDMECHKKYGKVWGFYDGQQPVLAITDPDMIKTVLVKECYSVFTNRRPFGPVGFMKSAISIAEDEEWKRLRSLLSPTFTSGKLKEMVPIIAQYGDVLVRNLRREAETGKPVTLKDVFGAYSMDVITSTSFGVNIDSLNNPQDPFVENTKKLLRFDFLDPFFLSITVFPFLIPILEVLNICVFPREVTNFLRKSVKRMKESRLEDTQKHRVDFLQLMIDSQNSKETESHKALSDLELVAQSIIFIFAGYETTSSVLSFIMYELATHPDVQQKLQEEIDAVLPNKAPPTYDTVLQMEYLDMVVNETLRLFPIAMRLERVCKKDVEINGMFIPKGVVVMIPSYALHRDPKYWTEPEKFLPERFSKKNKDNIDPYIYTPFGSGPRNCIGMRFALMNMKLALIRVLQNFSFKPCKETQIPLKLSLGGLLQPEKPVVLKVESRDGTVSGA

[11] = target: Cytochrome P450 2C9 (Homo sapiens, UniProt P11712)
Chain of Cytochrome P450 2C9 (P11712 whole entry): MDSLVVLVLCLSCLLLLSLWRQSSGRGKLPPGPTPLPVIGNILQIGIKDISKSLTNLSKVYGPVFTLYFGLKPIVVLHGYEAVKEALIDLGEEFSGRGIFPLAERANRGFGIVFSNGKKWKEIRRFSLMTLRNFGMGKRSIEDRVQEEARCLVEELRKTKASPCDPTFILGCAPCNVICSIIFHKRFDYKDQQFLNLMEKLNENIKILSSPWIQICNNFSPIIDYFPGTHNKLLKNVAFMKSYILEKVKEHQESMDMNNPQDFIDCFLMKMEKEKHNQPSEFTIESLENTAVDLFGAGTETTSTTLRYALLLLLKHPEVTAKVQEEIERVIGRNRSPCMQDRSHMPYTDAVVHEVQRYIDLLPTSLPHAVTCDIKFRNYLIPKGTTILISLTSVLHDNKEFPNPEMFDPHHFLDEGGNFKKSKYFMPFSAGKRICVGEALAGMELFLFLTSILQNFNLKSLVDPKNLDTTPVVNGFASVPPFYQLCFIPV

[12] = target: T5, High affinity choline transporter 1 (Homo sapiens, UniProt Q9GZV3); assay: CHT inhibitors, dose response, cell-based, 5-point CRC, membrane potential dye (AID 504840); type: functional
T5 sequence (Q9GZV3 whole entry): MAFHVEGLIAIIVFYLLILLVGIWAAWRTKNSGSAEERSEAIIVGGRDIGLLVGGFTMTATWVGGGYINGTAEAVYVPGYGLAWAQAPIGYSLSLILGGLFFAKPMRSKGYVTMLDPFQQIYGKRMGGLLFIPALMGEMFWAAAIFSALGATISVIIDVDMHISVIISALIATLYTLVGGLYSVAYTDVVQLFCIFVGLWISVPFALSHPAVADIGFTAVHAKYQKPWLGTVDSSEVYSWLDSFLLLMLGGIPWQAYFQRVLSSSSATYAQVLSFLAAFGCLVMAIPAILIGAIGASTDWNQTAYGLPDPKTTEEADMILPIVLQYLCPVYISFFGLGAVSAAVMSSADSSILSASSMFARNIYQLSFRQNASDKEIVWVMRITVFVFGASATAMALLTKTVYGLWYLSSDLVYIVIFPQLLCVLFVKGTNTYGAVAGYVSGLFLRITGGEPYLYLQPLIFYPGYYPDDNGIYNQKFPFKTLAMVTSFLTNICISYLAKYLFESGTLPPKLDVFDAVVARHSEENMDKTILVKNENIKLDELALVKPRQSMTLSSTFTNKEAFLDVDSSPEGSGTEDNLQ

[13] = system: Escherichia coli; assay: microbe, parasite or virus in culture
[14] = target: Cytochrome P450 2C19 (Homo sapiens, UniProt P33261); assay: Cytochrome panel assay with activity outcomes. Panel member name: p450-cyp2c19 Compounds with AC50 equal or less than 10 uM are considered active; type: functional; details: read-out: AC50
Chain of Cytochrome P450 2C19 (P33261 whole entry): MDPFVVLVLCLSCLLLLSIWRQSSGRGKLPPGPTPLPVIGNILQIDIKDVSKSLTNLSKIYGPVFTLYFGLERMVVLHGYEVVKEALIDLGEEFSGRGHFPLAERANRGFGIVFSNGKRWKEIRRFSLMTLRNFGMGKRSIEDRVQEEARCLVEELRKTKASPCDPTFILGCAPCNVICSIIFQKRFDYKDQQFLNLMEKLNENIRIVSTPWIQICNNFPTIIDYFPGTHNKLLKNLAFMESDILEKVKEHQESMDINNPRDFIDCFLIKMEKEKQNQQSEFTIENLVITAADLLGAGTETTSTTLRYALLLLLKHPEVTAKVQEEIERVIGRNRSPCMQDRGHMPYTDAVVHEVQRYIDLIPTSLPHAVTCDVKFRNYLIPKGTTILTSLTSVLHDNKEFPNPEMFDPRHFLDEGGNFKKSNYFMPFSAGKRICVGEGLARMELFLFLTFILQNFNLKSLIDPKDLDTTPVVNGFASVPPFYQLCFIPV

[15] = target: Cytochrome P450 2D6 (Homo sapiens, UniProt P10635);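 also: CYP2D6 member of a cytochrome P450 panel assay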
Chain of Cytochrome P450 2D6 (P10635 whole entry): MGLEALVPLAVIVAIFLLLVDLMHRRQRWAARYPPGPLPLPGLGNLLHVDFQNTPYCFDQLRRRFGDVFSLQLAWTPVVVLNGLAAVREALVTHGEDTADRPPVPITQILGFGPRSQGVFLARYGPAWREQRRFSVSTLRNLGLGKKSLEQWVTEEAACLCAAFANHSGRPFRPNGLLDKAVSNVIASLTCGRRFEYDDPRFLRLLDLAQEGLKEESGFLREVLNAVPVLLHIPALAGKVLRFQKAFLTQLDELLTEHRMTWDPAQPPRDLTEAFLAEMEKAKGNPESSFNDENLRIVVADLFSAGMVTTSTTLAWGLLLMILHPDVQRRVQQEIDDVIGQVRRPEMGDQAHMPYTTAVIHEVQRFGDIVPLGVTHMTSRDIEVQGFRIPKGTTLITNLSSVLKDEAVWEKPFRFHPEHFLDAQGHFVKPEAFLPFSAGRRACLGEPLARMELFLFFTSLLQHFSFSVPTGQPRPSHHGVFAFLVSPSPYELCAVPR

Chain of Alkaline phosphatase, placental type (P05187 whole entry): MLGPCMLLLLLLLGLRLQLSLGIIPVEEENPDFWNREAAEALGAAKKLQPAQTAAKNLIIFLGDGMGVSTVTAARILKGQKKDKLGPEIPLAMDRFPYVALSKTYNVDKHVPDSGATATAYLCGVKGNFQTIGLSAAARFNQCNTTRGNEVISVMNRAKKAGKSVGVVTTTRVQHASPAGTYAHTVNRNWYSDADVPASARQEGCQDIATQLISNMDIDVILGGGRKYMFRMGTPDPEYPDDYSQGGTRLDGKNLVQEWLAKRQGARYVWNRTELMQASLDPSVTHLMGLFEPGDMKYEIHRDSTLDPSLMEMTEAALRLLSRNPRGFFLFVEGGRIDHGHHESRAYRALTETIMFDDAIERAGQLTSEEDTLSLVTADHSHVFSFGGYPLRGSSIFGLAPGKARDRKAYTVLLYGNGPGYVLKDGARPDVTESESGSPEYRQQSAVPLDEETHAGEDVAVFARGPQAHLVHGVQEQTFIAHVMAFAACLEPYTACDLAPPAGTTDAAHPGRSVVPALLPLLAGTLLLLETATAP
Chain of Nonstructural protein 1 (Q194T2 whole entry): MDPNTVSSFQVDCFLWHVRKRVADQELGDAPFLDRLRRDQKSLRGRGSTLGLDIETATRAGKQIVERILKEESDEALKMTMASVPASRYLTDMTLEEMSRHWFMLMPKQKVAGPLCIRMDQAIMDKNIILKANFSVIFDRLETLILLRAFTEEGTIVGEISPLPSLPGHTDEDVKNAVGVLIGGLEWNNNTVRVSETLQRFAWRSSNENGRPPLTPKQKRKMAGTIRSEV

Compound: COC1=C(Nc2ccc(C)cc2)C(=O)c2ccccc2C1=O
- IC50 [1]: 10 µM (active)

Compound: O=C(NC1(C(F)(F)F)Oc2ccc(Cl)cc2O1)N1CCC2(CC1)OCCO2 (stereo not drawn)
- IC50 [2]: 9.93 µM (active)

Compound: COc1ccccc1NC(=O)CSc1nn2c(=O)c(C)nnc2s1
- IC50 [1]: 16.1 µM (active)

Compound: CCOC(=O)CCc1ccc(NC(=O)/C=C/c2ccc([N+](=O)[O-])o2)cc1
- AC50 [3]: 6.83 µM (active)

Compound: Cc1cccc(C)c1OCc1nnc2c3cnn(-c4ccccc4)c3ncn12
- IC50 [4]: > 100 µM (not active)
- IC50 [2]: > 100 µM (inactive)
- IC50 [5]: > 100 µM (inactive)

Compound: O=C(O)CCCNC(=O)/C=C/c1ccco1
- IC50 [6]: 17.1 µM (active)
- IC50 [7]: 13.6 µM (active)
- IC50 [8]: > 100 µM (active)
- IC50 [9]: 151 µM (active)

Compound: COC(=O)c1cc(C(=O)c2ccc(Cl)cc2Cl)cn1C
- AC50 [10]: inconclusive
- AC50 [11]: inconclusive

Compound: O=C(NCCO)c1cc(-c2cc(F)c(Cl)cc2Cl)n[nH]1
- IC50 [4]: > 100 µM (not active)
- IC50 [2]: > 25 µM (inactive)

Compound: CCCCN(C)C(=O)NC1(C(F)(F)F)Oc2ccccc2O1
- IC50 [2]: > 100 µM (inactive)
- IC50 [5]: > 100 µM (inactive)

Compound: CC(C)c1ccc(NC(=O)CSc2nc(=O)n(CCCN3CCOCC3)c3c2CCC3)cc1
- IC50 [12]: 13.8 µM (active)

Compound: Nc1nc(=O)n([C@H]2C[C@H](O)[C@@H](CO)O2)cc1F
- AC50 [13]: 33.8 µM (active)

Compound: COc1ccc(NC(=O)CCNS(=O)(=O)c2ccc3c(c2)c(=O)n(C)c(=O)n3C)cc1
- AC50 [10]: inconclusive
- AC50 [11]: inconclusive

Compound: Nc1ccccc1C(=O)NCC1(c2ccccc2)CCCC1
- AC50 [13]: 113 µM (active)

Compound: CCOC(=O)Cn1nc(C)n(-c2ccc(C)cc2)c1=O
- AC50 [14]: 28.2 µM (inconclusive)
- AC50 [10]: inconclusive

Compound: O=C(CSc1nc2ccccc2s1)c1ccc(O)c(O)c1
- IC50 [2]: 3.42 µM (active)
- IC50 [5]: 3.03 µM (active)

Compound: NC(=O)c1c(NC(=O)C(=O)N2CCOCC2)sc2c1CCC2
- AC50 [13]: 23.9 µM (active)

Compound: CCOC(=O)N1CCN(C(=O)c2ccc3nc(N4CCC(C)CC4)sc3c2)CC1
- AC50 [14]: 11.2 µM (inconclusive)
- AC50 [15]: 28.2 µM (inconclusive)
- AC50 [10]: inconclusive

Compound: C/C=C\C(=O)N(CC)c1ccccc1C
- AC50 [10]: inconclusive

Compound: Cc1cc(NS(=O)(=O)c2ccc(NC(=O)COc3c(C)cc(Br)cc3C)cc2)no1
- IC50 [12]: 13.2 µM (active)

Compound: O=S(=O)(Nc1cccnc1)c1cc(Cl)ccc1F
- IC50 [4]: > 100 µM (not active)
- IC50 [5]: 46.5 µM (active)

Compound: CCOC(=O)N1CCN(C(=O)CCCn2c(=S)[nH]c3ccsc3c2=O)CC1
- IC50 [12]: 12.3 µM (active)

Compound: O=S(=O)(Nc1ccccc1Br)c1cnc2ccccc2c1
- IC50 [4]: > 10 µM (inconclusive)
- IC50 [5]: > 10 µM (inactive)

Compound: CN(C(=O)/C=C/c1ccc([N+](=O)[O-])s1)c1ccccc1
- AC50 [3]: 9.11 µM (active)
